Data set [1] addresses T1, Human pancreatic cholesterol esterase (Homo sapiens, UniProt P19835).
T1 construct: Human pancreatic cholesterol esterase was purified as described by Bosner et al; from tissue; host or cells: human pancreas (purified to homogeneity)
T1 sequence (P19835 21-753): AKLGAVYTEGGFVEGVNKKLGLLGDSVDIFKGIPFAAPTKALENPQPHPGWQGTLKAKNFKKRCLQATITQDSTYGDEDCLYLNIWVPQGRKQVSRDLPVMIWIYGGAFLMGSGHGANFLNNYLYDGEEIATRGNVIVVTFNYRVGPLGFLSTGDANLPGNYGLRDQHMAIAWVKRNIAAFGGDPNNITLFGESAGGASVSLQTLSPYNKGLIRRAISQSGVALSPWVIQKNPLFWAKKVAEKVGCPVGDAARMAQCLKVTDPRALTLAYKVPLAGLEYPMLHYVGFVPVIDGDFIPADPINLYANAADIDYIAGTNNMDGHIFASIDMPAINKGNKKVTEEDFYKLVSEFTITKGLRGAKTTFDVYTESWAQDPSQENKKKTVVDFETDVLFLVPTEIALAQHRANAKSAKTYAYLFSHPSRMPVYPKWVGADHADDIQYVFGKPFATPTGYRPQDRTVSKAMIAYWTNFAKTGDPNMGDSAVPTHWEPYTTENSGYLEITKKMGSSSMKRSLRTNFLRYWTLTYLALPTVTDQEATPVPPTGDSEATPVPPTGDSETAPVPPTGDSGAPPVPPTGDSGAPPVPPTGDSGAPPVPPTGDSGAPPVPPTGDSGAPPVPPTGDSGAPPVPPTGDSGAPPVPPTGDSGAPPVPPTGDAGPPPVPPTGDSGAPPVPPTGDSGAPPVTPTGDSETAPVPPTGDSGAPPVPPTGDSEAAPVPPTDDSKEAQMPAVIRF
Briefly: Inhibition of human pancreatic cholesterol esterase, cholesteryl 14C-oleate hydrolysis. In kind it is biochemical.

Data set [2] concerns the target human 100 kDa cholesterol esterase. Briefly: Inhibition of triolein hydrolysis by human 100 kDa cholesterol esterase. The format is biochemical. Particulars: Table 3; triolein as substrate. The protocol: Alginic acid from Macrocystis pyrifera (kelp) was dissolved in water at a concentration of 1 mg/ml. This stock solution was used to prepare various polysaccharide concentrations down to 10^-5 mg/ml. Human pancreatic cholesterol esterase was purified as described by Bosner et al., Proc. Nat'l, Acad, Sci., 85, 7438 (1988). To measure cholesterol esterase inhibition by alginic acid, 50 μl of cholesterol esterase (10 μg/ml), 75 μl of phosphatidylcholine vesicles containing cholesteryl ^14 C-oleate (1 mM 2,000 CPM/nmole), 25 μl of 100 mM taurocholate, 120 μl of 150 mM Tris, pH 7.5 and 30 μl of test alginic acid solution were incubated at 37° C. for fifteen minutes. The assay was quenched by placing the reaction vessels in a 4° C. ice bath and by adding 0.6 ml of 0.3 N NaOH and 3 ml of benzene/chloroform/methanol (1.0/1.2/0.5). The quenched reactions were vortexed for 30 seconds, centrifuged at 3,000 g for 15 minutes and 1 ml of the upper aqueous phase was added to 7 ml of Aquasol-2 (DuPont) with 0.025 ml of 6 N HCl. These mixtures were vortexed for one minute and counted for ^14 C-oleate. The counts were compared to a sample which contained cholesterol esterase but no alginic acid to determine the percentage of inhibition.
(The same assay procedure was used as described in Part I, only triolein was used instead of cholesteryl oleate.) As shown in the table below, the IC50 for inhibition of triolein hydrolysis is nearly the same as that for cholesteryl oleate hydrolysis.

The target of data set [3] is 52 kDa human pancreatic triglyceride lipage. The following applies: literature; cited from earlier work.
Data set [4] has as its target cholesterol esterase from rat. Particulars: Borgstrom 1988; water soluble artificial and colorimetric substrates; cited from earlier work.
Data set [5] deals with cholesterol esterase. Particulars: Bosner et al., 1988; cited from earlier work.
In data set [6] the target is cholesterol esterase. Briefly: Inhibition of cholesterol oleate hydrolysis by cow pancreatic cholesterol esterase. The format is biochemical. Particulars: enzyme from the cow. The source says:
(§1) These sulfated polysaccharides are also inhibitors of animal pancreatic cholesterol esterase.

Data set [7] relates to cholesterol esterase. The data set is described as follows: Inhibition of cholesterol oleate hydrolysis by pig pancreatic cholesterol esterase. The format is biochemical. Particulars: enzyme from pig pancreas.
Text: as §1

Data set [8] deals with cholesterol esterase. The data set is described as follows: Inhibition of cholesterol oleate hydrolysis by rat pancreatic cholesterol esterase. In kind it is biochemical. The following applies: enzyme from rat pancreas.
Text: as §1

The test system of data set [9] is cholesterol esterase. The data set is described as follows: Inhibition of cholesterol oleate hydrolysis by rabbit pancreatic cholesterol esterase. In kind it is biochemical. Particulars: enzyme from rabbit pancreas.
Text: as §1

Data set [10] deals with Colonic adenocarcinoma cells (CaCo-2). Briefly: Cholesterol esterase catalyzed cholesterol uptake by CaCo-2 cells. In kind it is cell-based. The following applies: CaCo-2, bovine 72 kDa cholesterol esterase. The protocol:
Colonic adenocarcinoma cells (CaCo-2, American Type Culture Collection) were grown to a density of 2×10^6 cells on […] coverslips in Dulbecco's Moditied Eagle's Medium containing 10% (v/v) lipoprotein depleted serum. The coverslips were washed with phosphate buffered saline (PBS) and transferred to 35 mm wells containing 1.0 ml PBS, 2 mM taurocholate and 1% bovine serum albumin. The cells were then incubated at 37° C. with 0.01 uCi of ^3 H cholesterol and 0.01 uCi of ^14 C-cholesteryl oleate, which were embedded in phosphatidylcholine vesicles. The control wells received no cholesterol esterase while the experimental set received bovine 72 kDa cholesterol esterase. At various incubation times the coverslips were removed, washed three times with PBS, and the cells were collected by scraping and washing with 250 mM tris glycine buffer (pH 8.8) containing 0.1% SDS. The cells were collected by centrifugation and the pellet was heated at 100° C. for five minutes and then sonicated for ten minutes. The uptake of cholesterol, either from free sterol or from cholesteryl oleate, was determined by scintillation counting for ^3 H or ^14 C, respectively.

Data set [11] in a line: In vivo cholesterol uptake in cholesteryl oleate fed rabbit, nasogastric dosing. The method, then: Inhibition of cholesterol uptake from either free cholesterol or from cholesteryl oleate was examined in vivo using cellulose sulfate. A rabbit which had been fed cholesteryl oleate for six weeks was fasted for twelve hours and a nasogastric cube was inserted into its stomach. Five ml of a cellulose sulfate solution (100 mg/ml) in Tris buffer were added followed by 10 ml of 20 uCi of ^3 H cholesterol incorporated in phosphatidylcholine vesicles and 10 ml of 20 uCi of ^14 C cholesteryl oleate. The nasogastric tube was then flushed with an additional 5 ml of cellulose sulfate solution (100 mg/ml). After the tube was removed, blood was drawn from an ear vein as a function of time and 100 μl of plasma was counted for ^14 C and ^3 H. As shown, cellulose sulfate inhibited by 85% the uptake of either free cholesterol or cholesterol derived from cholesteryl oleate (FIG. 5).

Data set [12] is described as follows: Serum radiolabeled cholesterol in rabbit fed cellulose sulfate chow. Particulars: chow with 0.5% cellulose sulfate. The format is in vivo, New Zealand White rabbit. The source says:
A New Zealand White rabbit was maintained on regular rabbit chow. Two days before the experiment began the animal was fed chow to which cellulose sulfate had been added to give a final concentration of 0.5%. After 12 hrs. on regular chow then, the experiment began with the administration of ^14 C-cholesteryl oleate as described above. The animal was then allowed to eat and drink regular chow in a normal manner. Blood samples were withdrawn from an ear vein and the radiolabeled cholesterol measured by scintillation counting. […] In contrast, in the control animal, label appears only two hours after its administration.

In data set [13] the test system is cholesterol esterase. The data set is described as follows: Stability under baking conditions: cholesterol esterase inhibition by muffin supernatant. The following applies: retention of inhibitory activity. The protocol:
The sulfated polysaccharides described here retain their inhibitory activity for prolonged periods at elevated temperatures. […] For example, 109 mg of cellulose sulfate were added to 198 gm (7 oz) of corn muffin mix (Gold Medal,) and the solid ingredients were thoroughly mixed together. After the addition of one egg and one third cup milk, the muffin mix was stirred fifteen times. The mixture was poured into nine muffin tins and baked for fifteen minutes in a 400° oven. The next day one muffin was broken up, added to 100 ml of water and allowed to stand for fifteen minutes. The mixture was centrifuged and the clear supernatant was assayed for the presence of cholesterol esterase inhibition. The IC50 of this solution was achieved when this solution was diluted 10^3 -10^4 times.

Setting [14] is: Table 3, cholesteryl oleate as substrate, read-out: IC50 (nM) Cholesteryl Oleate.
Setting [15] is: cholesteryl oleate hydrolysis, molar value based on assumed polymer molecular weight, read-out: IC50.

Where two headings read alike, the source gives them in different places.

Usually IC50 stands for the concentration needed to halve the response being measured. With Chitin Sulfate, the IC50 in [1] (Table 2, read-out: IC50) is 0.16 nM; in data set [1] (setting [14]) it was 0.3 nM; in data set [1] (setting [15]), 0.3 nM; in data set [2] it was 0.35 nM.

The Ki is the dissociation constant of the complex between target and ligand, obtained from inhibition or displacement. `CCCCCCCCCCC[C@@H](C[C@@H]1OC(=O)[C@H]1CCCCCC)OC(=O)[C@H](CC(C)C)NC=O` [tetrahydrolipstatin]: the Ki in [3] was 100 nM; in data set [4], 100 µM.

With “pectin [native, unsulfated pectin, reference compound]”, in data set [1] (hydrolysis of cholesterol esters), the “inhibition of cholesterol esterase (in words)” value is “does not inhibit cholesterol esterase”.

Take chondroitan sulfate: the “interaction with cholesterol esterase” value in the data set on cholesterol esterase [5] is “does not interact with cholesterol esterase”.

With Cellulose Sulfate, the IC50 in data set [1] (Table 2, read-out: IC50) worked out at 0.02 nM; in data set [1] (setting [14]) it was 0.02 nM; in [1] (setting [15]), 0.02 nM; in [2], 0.06 nM. This molecule also came in with a Ki on cholesterol esterase [6] of 100 nM. Besides, the “inhibition of cholesterol oleate hydrolysis” value in the data set with cholesterol esterase [7], in the data set with cholesterol esterase [8] and with cholesterol esterase [9] was “inhibits” each time. The “uptake of cholesterol derived from cholesteryl oleate by the cells” value in data set [10] (FIG. 4a) was “markedly inhibits cholesterol uptake”. The “uptake of free cholesterol by the cells” value in [10] (FIG. 4b) was “markedly inhibits cholesterol uptake”. Moreover, in [11] (rabbit, nasogastric cellulose sulfate 100 mg/ml, 3H cholesterol in plasma, FIG. 5), the “inhibition of uptake of free cholesterol” value is given as 85%. Moreover, in [11] (rabbit, nasogastric cellulose sulfate 100 mg/ml, 14C in plasma, FIG. 5), the “inhibition of uptake of cholesterol derived from cholesteryl oleate” value amounted to 85%. Also, in [11] (rabbits), the “absorption of free cholesterol” value is listed as “decreases absorption of free cholesterol”. Further, the “decrease of cholesterol absorption” value in data set [11] (rabbits fed cholesterol oleate) was “over 70%”. The “time until cholesterol appears in serum after administration of the label” value in [12] was “four”. The “reduction of level of serum cholesterol compared to control rabbit” value in [12] (14C-cholesteryl oleate label, FIG. 7) turned out to be 50%. In addition, the “stability at elevated temperatures / baking conditions” value in the data set on cholesterol esterase [13] is listed as “stable under baking conditions”.

For the molecule Chitosan Sulfate, the concentration for half-maximal inhibition (IC50) came to 0.16 nM in data set [1] (Table 2, read-out: IC50); 0.3 nM in [1] (setting [14]); 0.3 nM in data set [1] (setting [15]); 0.85 nM in [2].

As to Alginic acid [reference compound], the IC50 came out at 20 nM in data set [1] (Table 1, read-out: IC50); 20 nM in data set [1] (setting [14]); 4 µg/mL in [1] (cholesteryl oleate hydrolysis); 20 nM in data set [1] (setting [15]); 42 nM in [2]. Also, the “Enhancement Factor” value in data set [1] (Table 1, relative to alginic acid) is recorded as 1.0.

These data come from patent publication US5616570A, “Use of non-absorbable synthetic sulfated polysaccharides to decrease cholesterol absorbtion” (priority 1994, dated 1997).
